This note sets out measurements from patent US5686454A, “Camphorcarbonyl” (Merck & Co., Inc., priority 1996, dated 1997).

Structures are written as SMILES.

The first test has as its target T1, uterine OT receptors (Rattus norvegicus, UniProt P70536).
T1 construct: crude membrane preparation of uteri; from tissue; host or cells: uterus of DES-treated rats, crude membranes
T1 sequence (P70536 1-388): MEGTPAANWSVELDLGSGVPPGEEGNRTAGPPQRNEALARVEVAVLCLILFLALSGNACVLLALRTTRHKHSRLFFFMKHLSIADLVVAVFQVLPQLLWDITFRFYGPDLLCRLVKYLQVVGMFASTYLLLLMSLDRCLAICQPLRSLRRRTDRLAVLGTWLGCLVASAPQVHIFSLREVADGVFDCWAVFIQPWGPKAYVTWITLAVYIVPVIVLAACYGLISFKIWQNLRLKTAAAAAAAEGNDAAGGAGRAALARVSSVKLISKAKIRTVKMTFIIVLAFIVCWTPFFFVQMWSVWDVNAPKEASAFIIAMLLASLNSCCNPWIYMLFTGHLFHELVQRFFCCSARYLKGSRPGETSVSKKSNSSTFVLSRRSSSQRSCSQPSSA
The test is described as follows: Radioligand binding: competition of [^3 H]oxytocin binding to rat uterine membranes. Conditions: 1 nM [^3 H]OT, rat uterus membranes, 60 minutes, 22° C., pH 7.4; read-out: IC50. An excerpt: RADIOGLIGAND BINDING ASSAYS
The high affinity binding of [^3 H]
Consider `Cc1ccccc1N1CCN(C(=O)C2C3CCC(C)(C2O)C3(C)C)CC1` (centres unmarked) [Example 2, 1-[(3-hydroxy-4,7,7-trimethylbicyclo[2.2.1]hept-2-yl)carbonyl]-4-(2-methylphenyl)-piperazine], for which the half-inhibitory concentration (IC50) (in general, the concentration that gives 50% inhibition) turned out to be 800 nM. For the molecule `Cc1ccccc1N1CCN(C(=O)C2(C)C(=O)C3(C)CCC2C3(C)C)CC1` (centres unmarked) [Example 3, 1-(2-methylphenyl)-4-[(2,4,7,7-tetramethyl-3-oxobicyclo[2.2.1]hept-2-yl)carbonyl]-piperazine], the IC50 is 150 nM. With `Cc1ccccc1N1CCN(C(=O)C2C(=NO)C3(C)CCC2C3(C)C)CC1` (stereo not drawn) [Example 6, 1-(2-methylphenyl)-4-[(4,7,7-trimethyl-3-hydroxyimino-bicyclo[2.2.1]-hept-2-endo-yl)carbonyl]-piperazine], the IC50 stood at 82 nM. For `Cc1ccccc1N1CCN(C(=O)C2C3CCC(C)(C2NC(=O)C(CCS(C)(=O)=O)NC(=O)OC(C)(C)C)C3(C)C)CC1` (stereo not drawn) [Example 9, 1-(2-methylphenyl)-4-[(4,7,7-trimethyl-3-exo-(4-methylsulfonyl-2-t-butoxycarbonylamino)butanoylaminobicyclo[2.2.1]hept-2-endo-yl)carbonyl]-piperazine], the IC50 stood at 6.5 nM. Regarding `Cc1ccccc1N1CCN(C(=O)C2C3CCC(C)(C2NC(=O)C(CCS(C)(=O)=O)NC(=O)OC(C)(C)C)C3(C)C)CC1` (stereo not drawn) [Example 11, 1-(2-methylphenyl)-4-[(4,7,7-trimethyl-3-endo-(4-methylsulfonyl-2-t-butoxycarbonylamino)butanoylaminobicyclo[2.2.1]hept-2-endo-yl)carbonyl]-piperazine], the IC50 worked out at 1100 nM. On to `Cc1ccccc1N1CCN(C(=O)C2C3CCC(C)(C2NC(=O)C(N)CCS(C)(=O)=O)C3(C)C)CC1` (stereo not drawn) [Example 12, 1-(2-methylphenyl)-4-[(4,7,7-trimethyl-3-endo-(4-methylsulfonyl-2-amino)butanoylaminobicyclo[2.2.1]hept-2-endo-yl)carbonyl]-piperazine], for which the IC50 was determined as 15.3 nM.

Regarding `Cc1ccccc1N1CCN(C(=O)C2C3CCC(C)(C2NC(=O)Cc2c[nH]cn2)C3(C)C)CC1` (centres unmarked) [Example 13, 1-(2-Methylphenyl)-4-[(4,7,7-trimethyl-3-(2-(4-imidazolyl))acetylaminobicyclo[2.21]hept-2-yl)carbonyl]-piperazine], the IC50 was 33.3 nM. For the molecule `CC(=O)NC1C(C(=O)N2CCN(c3ccccc3C)CC2)C2CCC1(C)C2(C)C` (centres unmarked) [Example 14, 1-(2-methylphenyl)-4-[(4,7,7-trimethyl-3-acetylaminobicyclo[2.2.1]hept-2-yl)carbonyl]-piperazine], the concentration for half-maximal inhibition (IC50) is 55 nM. The same measure, in the same setting: to `Cc1ccccc1N1CCN(C(=O)C2C3CCC(C)(C2NC(=O)[C@@H]2CCCN2)C3(C)C)CC1` (some centres unmarked) [Example 15, 1-(2-methylphenyl)-4-[(4,7,7-trimethyl-3-prolylaminobicyclo[2.2.1]hept-2-yl)carbonyl]-piperazine] belongs 60 nM. Consider `CCOC(=O)CCN1CCCC1C(=O)NC1C(C(=O)N2CCN(c3ccccc3C)CC2)C2CCC1(C)C2(C)C` (centres unmarked) [Example 16], for which the IC50 was found to be 27 nM. Consider `Cc1ccccc1N1CCN(C(=O)C2C3CCC(C)(C2NC(=O)C(C)(C)O)C3(C)C)CC1` (centres unmarked) [Example 17], for which the IC50 was found to be 16 nM.

For the molecule `Cc1ccccc1N1CCN(C(=O)C2C3CCC(C)(C2NC(=O)C(O)CO)C3(C)C)CC1` (centres unmarked) [Example 18, 1-(2-methylphenyl)-4-[(4,7,7-trimethyl-3-(2,3-dihydroxy)propionylaminobicyclo[2.2.1]hept-2-yl)carbonyl]-piperazine], the IC50 is 120 nM. On the same count and under the same terms, to `Cc1ccccc1N1CCN(C(=O)C2C3CCC(C)(C2NC(=O)C(NC(=O)OC(C)(C)C)C(C)O)C3(C)C)CC1` (centres unmarked) [Example 19, 1-(2-methylphenyl)-4-[(4,7,7-trimethyl-3-(2-(t-butoxycarbonyl)amino-3-hydroxy)butyrylaminobicyclo[2.2.1]hept-2-yl)carbonyl]-piperazine] belongs 160 nM; to `Cc1ccccc1N1CCN(C(=O)C2C3CCC(C)(C2NC(=O)C(N)C(C)O)C3(C)C)CC1` (centres unmarked) [Example 20, 1-(2-methylphenyl)-4-[(4,7,7-trimethyl-3-(2-amino-3-hydroxy)butyrylaminobicyclo[2.2.1]hept-2-yl)carbonyl]-piperazine], 3.6 nM. For `Cc1ccccc1N1CCN(S(=O)(=O)C[C@]23CC[C@H](CC2=O)C3(C)C)CC1` [Example 37, 1-((7,7-Dimethyl-2-oxo-bicyclo(2.2.1)heptan-1-yl)methanesulfonyl)-4-(2-methylphenyl)piperazine], the IC50 worked out at 1000 nM.

`Cc1ccccc1N1CCN(S(=O)(=O)C[C@]23CC[C@H](C[C@]2(O)C(C)C#N)C3(C)C)CC1` (stereo partly drawn) [Example 38, 1-((7,7-Dimethyl-2-exo-hydroxy-2-endo-(1-cyano)ethyl-bicyclo(2.2.1)heptan-1-yl)methanesulfonyl)-4-(2-methylphenyl)piperazine]: the IC50 was determined as 150 nM.

As to `Cc1ccccc1N1CCN(S(=O)(=O)C[C@]23CC[C@H](C[C@]2(O)C(C)CN)C3(C)C)CC1` (some centres unmarked) [Example 39], the IC50 turned out to be 180 nM. With `Cc1ccccc1N1CCN(S(=O)(=O)C[C@]23CC[C@H](C[C@]2(O)C(C)CNC(=O)[C@@H]2CCCN2)C3(C)C)CC1` (stereo partly drawn) [Example 40, 1-((7,7-Dimethyl-2-exo-hydroxy-2-endo-2-(1-(1-prolyl)-amino)propylbicyclo(2.2.1)heptan-1-yl)methanesulfonyl)-4-(2-methylphenyl)piperazine], the IC50 was found to be 34 nM. Still for that read-out and setting: to `CCOC(=O)CCCN1CCC[C@H]1C(=O)NCC(C)[C@@]1(O)C[C@H]2CC[C@]1(CS(=O)(=O)N1CCN(c3ccccc3C)CC1)C2(C)C` (stereo partly drawn) [Example 41, 1-((7,7-Dimethyl-2-exo-hydroxy-2-endo-2-(1-(1-N-(ethoxycarbonylpropyl)prolyl)amino)propyl-bicyclo(2.2.1)heptan-1-yl)methanesulfonyl)-4-(2-methylphenyl)piperazine] belongs 100 nM; to `Cc1ccccc1N1CCN(S(=O)(=O)C[C@]23CC[C@H](C[C@]2(O)C(C)CNC(=O)[C@@H]2CCCN2CCCC(=O)O)C3(C)C)CC1` (stereo partly drawn) [Example 42, 1-((7,7-Dimethyl-2-exo-hydroxy-2-endo-2-(1-(1-N-(3-carboxypropyl)prolyl)amino)propyl-bicyclo(2.2.1)heptan-1-yl)methanesulfonyl)-4-(2-methylphenyl) piperazine], 10 nM.

`Cc1ccccc1N1CCN(S(=O)(=O)C[C@]23CC[C@H](C[C@]2(O)C(C)CNC(=O)Cc2c[nH]cn2)C3(C)C)CC1` (stereo partly drawn) [Example 43, 1-((7,7-Dimethyl-2-exo-hydroxy-2-endo-2-(1-(4(5)-imidazolylacetyl)amino)propyl-bicyclo(2.2.1)heptan-1-yl)methanesulfonyl)-4-(2-methylphenyl)piperazine]: the IC50 stood at 8 nM.

As to `COC(=O)CCN(CCC(=O)OC)CC(C)[C@@]1(O)C[C@H]2CC[C@]1(CS(=O)(=O)N1CCN(c3ccccc3C)CC1)C2(C)C` (stereo partly drawn) [Example 47, 1-((7,7-dimethyl-2-exo-hydroxy-2-endo-2-(1-bis-(2-methoxycarbonylethyl)amino)propyl-bicyclo(2.2.1)heptan-1-yl)methanesulfonyl)-4-(2-methylphenyl)piperazine], the IC50 is 54 nM. Same read-out and setting: as for `Cc1ccccc1N1CCN(S(=O)(=O)C[C@]23CC[C@H](CC2=CCCl)C3(C)C)CC1` [Example 49, 1-((7,7-dimethyl-2-(2-chloro)ethylidinebicyclo-(2.2.1)heptan-1-yl)methanesulfonyl)-4-(2-methyl-phenyl)piperazine], the figure is 1100 nM.

Staying with this test, now noted: IC50, 1 nM [^3 H]OT, rat uterus membranes, 60 minutes, 22° C., pH 7.4.
`Cc1ccccc1N1CCN(S(=O)(=O)C[C@]23CC[C@H](C[C@]2(O)C(C)CNC(=O)C2CN4CCC2CC4)C3(C)C)CC1` (stereo partly drawn) [Example 44, 1-((7,7-Dimethyl-2-exo-hydroxy-2-endo-2-(1-(quinuclidin-3-yl-carbonyl)amino)propyl-bicyclo(2.2.1)heptan-1-yl)methanesulfonyl)-4-(2-methylphenyl)piperazine]: the IC50 was determined as 18 nM.

The test is the same for the next values; noted with them: read-out: % inhibition at 1000 nM.
As for `Cc1ccccc1N1CCN(S(=O)(=O)CC23CCC(CC24CO4)C3(C)C)CC1` (single isomer, unassigned) [Example 54, 1-((7,7-Dimethyl-2-spiro-epoxy-bicyclo(2.2.1)heptan-1-yl)methanesulfonyl)-4-(2-methylphenyl)piperazine], the inhibition (in general, how much of the control response was suppressed) at 1 µM was determined as 31%. With `Cc1ccccc1N1CCN(C(=O)C2(CC(=O)O)C(=O)C3(C)CCC2C3(C)C)CC1` (centres unmarked) [Example 4, 1-(2-methylphenyl)-4-[(4,7,7-trimethyl-3-oxo-2-carboxymethyl-bicyclo[2.2.1]hept-2-yl)carbonyl]-piperazine], the inhibition at 1 µM came to 53%.

Consider `Cc1ccccc1N1CCN(C(=O)C2(CC#N)C(=O)C3(C)CCC2C3(C)C)CC1` (centres unmarked) [Example 5], for which the inhibition at 1 µM was determined as 27%.

Turning to `Cc1ccccc1N1CCN(C(=O)C2C3CCC(C)(C2NC(=O)C(N)CCS(C)(=O)=O)C3(C)C)CC1` (stereo not drawn) [Example 10, 1-(2-methylphenyl)-4-[(4,7,7-trimethyl-3-exo-(4-methylsulfonyl-2-amino)butanoylaminobicyclo[2.2.1]hept-2-endo-yl)carbonyl]-piperazine], the inhibition at 1 µM came out at 75%. On the same count and under the same terms, as for `Cc1ccccc1N1CCN(S(=O)(=O)C[C@]23CC[C@H](CC2=CCNCC(C)C)C3(C)C)CC1` [Example 50, 1-((7,7-dimethyl-2-(2-isobutylamino)ethylidine-bicyclo(2.2.1)heptan-1-yl)methanesulfonlyl)-4-(2-methylphenyl)piperazine], the figure is 44%.
